Reference: publication PMC5382548 (Scientific Reports, 2015)
Entries after “also recorded” stand apart in the source; their conditions may differ.

Key:
[1] = system: F21T G4 (human telomeric sequence); assay: FRET melting assay, F21T telomeric G4; format: binding; details: G4 0.2 μM, ligand 1 μM
Procedure: Two compounds 2d and 3e were selected and evaluated for their ability to stabilize the 32-mer sequence in the NHE of the human KRAS promoter (KRAS32R)[12], two G4 motifs in the 5′UTR of KRAS mRNA (UTR-1 and UTR-2)[24] and a 21-mer DNA G4 from the human telomeric sequence (F21T). The KRAS32R sequence has been described as forming two G4 structures which exist in equilibrium. One sequence folds into a G4 (Q1) with a Tm of ~55°C that is disrupted on increasing the temperature and then, the full-length 32-mer sequence folds into a new G4 (Q2, Tm of ~72°C)[13]. In our assay, the KRAS32R sequence (in the presence or absence of IQcs) folded in a single G4 structure (Tm ≈ 54°C), as shown by the single inflection for the first derivative of the FRET melting data (Sup. Inf.; Figure S4). This monophasic behaviour was also observed in the presence of TMPyP4[13].
Oligonucleotide sequences were purchased from Eurofins MWG Synthesis GmbH, Germany or STAB VIDA Genomics Lab, Caparica, Lisbon, Portugal. The labelled oligonucleotides used in the FRET assays had attached the donor fluorophore FAM (6-carboxyfluorescein) and the acceptor fluorophore TAMRA (6-carboxytetramethylrhodamine): KRAS21R: 5′-FAM-[…]-TAMRA-3′; KRAS32R: 5′-FAM-[…]-TAMRA-3′; UTR-1: 5′-FAM-GCGGCGGCGGAGG-TAMRA-3′; UTR-2: 5′-FAM-[…]-TAMRA-3; T-Loop:5′-FAM-[…]-TAMRA-3′; F21T: 5′-FAM-[…]-TAMRA-3′. Non-labelled oligonucleotides were used in FRET competition assays and in the spectroscopic studies: ds26: - d(5′-CAATCGGATCGAATT CGATCCGATTG-3′); KRAS21R: 5′-[…]-3′; HT21: 5′-[…]-3′. Each oligonucleotide was initially diluted to a storage solution at 100 μM in nuclease-free water (not DEPC-treated), purchased from Ambion Applied Biosystems UK.
The ability of indolo[3,2-c]quinolines to stabilize DNA sequences was investigated using a Fluorescence Resonance Energy Transfer (FRET) assay as reported elsewhere.

[2] = system: KRAS mRNA in HCT116 cells; assay: KRAS mRNA steady-state levels, Taqman real-time RT-PCR, HCT116; format: cell-based, human; details: 72 h; for Reduction of KRAS mRNA steady-state levels, HCT116: equitoxic (IC50) concentrations (TMPyP4 12 μM)
Procedure: The effects of compounds on KRAS transcription in colon cancer cells (HCT116 and SW620) were evaluated by quantifying KRAS mRNA steady-state levels using Taqman real-time RT-PCR.
(a) KRAS mRNA steady-state expression was evaluated by Taqman Real-time RT-PCR using specific Taqman Assays for KRAS and β-Actin for normalization. KRAS mRNA steady-state expression levels were calculated by the ΔΔCt method, using DMSO (vehicle control) for calibration; and (b) KRAS protein steady-state expression evaluated by immunoblot relative to control (DMSO vehicle) Results are expressed as mean ± SEM of at least three independent experiments; *p < 0.05 and §p < 0.01 from DMSO (vehicle control).
HCT116, SW620 and HEK293 T cells were seeded in 35 mm plates at 150000 cells per well. […] After 72 h of compound exposure, cells were collected and processed for total RNA extraction using TRIZOL reagent (Invitrogen) according to the manufacturer's instructions. Samples were homogenized in TRIZOL reagent using a motor-driven Bio-vortexer (No1083; Biospec Products, Bartlesfield, OK) and disposable RNAse/DNAse free sterile pestles (Thermo Fisher Scientific, Inc., Chicago, IL). […] Evaluation of steady-state expression of KRAS mRNA was performed by Taqman Real-time PCR assay, detailed in Supplementary Information.
Total RNA extraction and Taqman real-time RT-PCR
Taqman Real-time PCR reactions were performed using 1.5 µg of total RNA, using High Capacity RNA to cDNA kit, according to the manufacturer`s instruction. Next, Real-time PCR reactions were performed using Taqman Universal Master Mix II, no UNG, and primers specific to human KRAS (assay ID Hs00000174_rf, # 4465807) primers and to Human β- Actin (ACTB # 401846) for normalization to endogenous control (both from Applied Biosystems Inc). Triplicate reactions were run per sample. Data was collected with 7300 System Sequence Detection Software, version 1.2.3 (Applied Biosystems Inc). The comparative threshold cycle method was used to calculate the amplification factor, where the threshold cycle (Ct) is defined as the cycle number at which the fluorescence passes the fixed threshold intensity level. KRAS expression levels in different samples were calculated on the basis of ΔΔCt method. For each cell line, vehicle control (DMSO) was used as the calibrator. The n-fold change in KRAS expression was obtained using the formula: 2-ΔΔCt. […]
SW620 and HEK293 T cells were seeded in 24-well plates 50,000cells/well. Twenty-four hours later, cells were exposed to compounds for 72 h. After treatment, cell culture supernatants were collected and adherent cells were detached with TrypLE (Invitrogen).
Next, detached cells were pooled with cell culture supernatants and centrifuged for 5 min (650 g). […]

Structure (SMILES) | ΔTm F21T [1] [°C] | Reduction of KRAS mRNA steady-state levels, HCT116 [2] | KRAS mRNA levels reduced to (% remaining) ([2]; IC50 concentration, cell line not given)
Cn1cc2c3ccccc3nc-2c2cc(Br)ccc21 [2a, 2-bromo-5-methyl-indolo[3,2-c]quinoline] | 5.6 |  | 
CCN(CC)CCCNc1ccc2[nH]c3c(c[n+](C)c4ccc(NCCCN(CC)CC)cc34)c2c1.[Cl-] [3d] |  | 25% | 
CCN(CC)CCCNc1ccc2c(c1)c1[nH]c3ccccc3c1c[n+]2C [2d] | 17.7 | 90% | ~ 10%
C[n+]1ccc(-c2c3nc(c(-c4cc[n+](C)cc4)c4ccc([nH]4)c(-c4cc[n+](C)cc4)c4ccc([nH]4)c(-c4cc[n+](C)cc4)c4nc2C=C4)C=C3)cc1 [TMPyP4, reference compound] |  | no ability to repress KRAS transcription; also recorded: did not inhibit KRAS transcription | 
CCN(CC)CCCNc1ccc2c(c1)[nH]c1c2c[n+](C)c2ccc(NCCCN(CC)CC)cc12.[Cl-] [3e] | 30.7 |  | 
